# Measurements from patent US5827821A, “Conformationally stabilized cell adhesion peptides” (The Burnham Institute, priority 1992, dated 1998).
# Where no end group is shown, it is not given here. [ ]: non-standard residue; d: D form. Pen = CC(C)(S)[C@H](N)C(=O)O
# Key:
# [1] = test system: attachment of normal rat kidney cells to fibronectin; assay: Cell adhesion assay: inhibition of attachment of normal rat kidney cells to fibronectin; format: cell-based; conditions: fibronectin-coated wells, peptide 0 to 10.0 mM, FIG. 2
# Method: (§1) Fibronectin and vitronectin were purified from human plasma according to the methods of Ruoslahti et al., (1982) Meth. Enz. 82:803; and Hayman et al., (1983) PNAS 80:4003, respectively, both of which are incorporated herein by reference. The adhesion of normal rat kidney cells to fibronectin and vitronectin was assayed as described in Ruoslahti et al., Meth. Enz. supra. Briefly, 0.1 ml solution of fibronectin or vitronectin at a concentration of 12 μg/ml in 0.1M PBS was placed in each well of 96-well plastic microtiter plates and left for 2 hours at room temperature. The unattached protein was removed by washing three times with PBS.
# (§2) One day before the assay, a confluent culture of normal rat kidney cells was split 1:2 using standard tissue culture trypsin. The cells were washed three times with PBS, pH 7.2. […] Before the last centrifugation, a sample was taken and cell numbers and viability by trypan blue exclusion are determined. […]
# (§3) The unattached cells were removed simply by removing the medium and washing the wells. […] The cells were then fixed with 3% paraformaldehyde in PBS and stained with 1% toluidine blue, paraformaldehyde in PBS, and attached cells counted. Their number was determined using a cell counter that is capable of counting cells attached to a surface (Dynatech Laboratories, Alexandria, Va.). […]
# [2] = test system: attachment of normal rat kidney cells to vitronectin; assay: Cell adhesion assay: inhibition of attachment of normal rat kidney cells to vitronectin; format: cell-based; conditions: vitronectin-coated wells, peptide 0 to 10.0 mM, FIG. 2
# Method: as §1, §2, §3
substance,measurement,setting,value
G[Pen]GRGDSPC (cysteine pairing not given here) [linear peptide],inhibition of attachment to fibronectin,[1],inhibited attachment of cells to both substrates at relatively similar concentrations
same,inhibition of attachment to vitronectin,[2],inhibited attachment of cells to both substrates at relatively similar concentrations
